Reference: patent publication US12539298B2, “Lobinaline N-oxides as positive allosteric modulators of the dopamine transporter with potential value in the treatment of substance abuse disorders” (University of Kentucky Research Foundation, priority 2019, dated 2026)
Where two headings read alike, the source gives them in different places.

How the values were obtained:
[1] = molecular target: T1, DAT (Rattus norvegicus, UniProt P23977); set-up: from tissue; host or cells: rat striatum (synaptosomes; homogenate); conditions: literature values [33], [34]; read-out: IC50, DA uptake under similar conditions; cited from earlier work
T1 sequence (P23977 whole entry): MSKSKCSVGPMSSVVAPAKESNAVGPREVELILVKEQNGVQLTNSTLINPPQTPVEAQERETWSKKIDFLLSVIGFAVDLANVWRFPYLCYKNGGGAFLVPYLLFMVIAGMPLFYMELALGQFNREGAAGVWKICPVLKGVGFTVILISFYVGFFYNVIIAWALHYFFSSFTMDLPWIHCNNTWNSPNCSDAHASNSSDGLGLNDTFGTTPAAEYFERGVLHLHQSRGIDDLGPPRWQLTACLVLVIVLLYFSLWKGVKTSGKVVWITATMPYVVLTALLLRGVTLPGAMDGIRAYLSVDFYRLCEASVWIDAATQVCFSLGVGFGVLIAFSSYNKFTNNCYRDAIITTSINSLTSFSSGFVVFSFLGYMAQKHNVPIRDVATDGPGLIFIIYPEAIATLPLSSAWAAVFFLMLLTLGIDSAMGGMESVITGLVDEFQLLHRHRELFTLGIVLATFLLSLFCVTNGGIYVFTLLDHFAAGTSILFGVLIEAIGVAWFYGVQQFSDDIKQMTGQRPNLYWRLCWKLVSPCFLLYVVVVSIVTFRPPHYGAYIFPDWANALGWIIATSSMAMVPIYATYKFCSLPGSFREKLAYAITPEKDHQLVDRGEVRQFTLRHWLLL

[2] = molecular target: T1, DAT; assay: DA clearance in striatum of anesthetized rats by in vivo electrochemistry (high-speed chronoamperometry), Example 8; set-up: DA clearance in striatum and nucleus accumbens of urethane-anesthetized SD rats; from tissue; host or cells: striatum / nucleus accumbens of living anesthetized SD rats; species or system SD rats; conditions: for reduction in DA clearance: striatum, 1 minute after local application (lobinaline ~250 nl 1 mM; 403, 419 ~300 nl 250 μM), FIGS. 7-9; for increase in amplitude of DA signal: ~300 nl, 250 μM local application, FIGS. 8, 9
Protocol: DA clearance in striatum and nucleus accumbens of urethane-anesthetized SD rats was monitored by in vivo electrochemistry using high-speed chrono-amperometry [see 36]. After obtaining reproducible signals for locally applied DA, vehicle or drug was applied slowly over 10-30 sec, then 30-60 sec later the next application of DA was made, with subsequent DA applications at 5-minute intervals for 25-30 min. The DA kinetic data from each animal was analyzed using FAST software (Quanteon). […] These effects were no longer seen 3-5 minutes after lobinaline ejection. They are consistent with simple competitive inhibition of the DAT by lobinaline. […] However, the lobinaline N-oxides produce different effects. Representative data from lobinaline N-oxide, at the same concentration used for lobinaline (1 mM in 250 nl medium) are shown in FIG. 6. […] This is entirely consistent with effects on synaptosomal [3H]DA uptake in vitro above, and probably represents competitive inhibition. However, after exposure to the N-oxide there is a significant and prolonged (c20 min) increase in the first order rate of decay of the DA peak. […] This increase in rate constant induced by the N-oxide varied from 20× to 2× at increasing depths in the DV gradient.
The uptake rate of locally applied DA (˜100 nl; 200 μM) was measured before and 1 minute after local application of lobinaline (˜250 nl; 1 mM), 403 (˜300 nl; 250 μM) or 419 (˜300 nl; 250 μM) (FIGS. 7, 8, and 9).

[3] = molecular target: T1, DAT; assay: dopamine uptake in striatum of isoflurane-anesthetized rats by in vivo electrochemistry, Examples 19-20; set-up: DA clearance in striatum and nucleus accumbens of urethane-anesthetized SD rats; from tissue; host or cells: striatum / nucleus accumbens of living anesthetized SD rats; species or system SD rats
Protocol: After obtaining reproducible signals for locally applied DA (50-75 nl, 200 μM) to produce a control DA peak height below 1 uM, vehicle or drug was locally applied slowly over 10-30 sec (˜500 nl 250 μM), then 60 sec later the next application of DA was performed, with subsequent DA applications at 5-min intervals for 25 min. […] The DA kinetic data from each animal were analyzed using FAST software (Quanteon, LLC, Nicholasville KY USA). […] These parameters were compared between pre- and post-drug application by one-way ANOVA with Tukey's post hoc analysis, with significance assigned at p<0.05.

[4] = aqueous solubility; format: physicochemical
Description: Lobinaline (FIG. 1), was isolated from plant material and identified as the first-known binitrogenous plant alkaloid more than 80 years ago [27]. The applicants began to test its pharmacological activity after identifying Lobelia cardinalis as a novel source of nicAChR activity by high throughput screening in 2005 [26]. This plant species has no history of abuse, or traditional medicinal use of relevance to SUDs. […] These actions support lobinaline as a lead compound for the treatment of SUDs, particularly alcohol and nicotine use disorders. […] Lobinaline also appears to have appropriate pharmacokinetics and low toxicity. […] Conversely, this makes it a good test of the ability of target-directed evolution to generate novel inhibitors of the DAT in mutant plant cells.
Lobinaline and the “mono”-N-oxide were separated from plant and culture material by acid/base extraction, but the bi-N-oxide was derived from lobinaline using 3-chloroperbenzoic acid. All these compounds were separated by column chromatography with identity and purity confirmed by LC/MS.

[5] = system: nicAChRs; assay: displacement of [3H]epibatidine from rat brain homogenates; format: binding
[6] = molecular target: T1, DAT; assay: [3H]DA uptake into rat striatal synaptosomes; format: biochemical; set-up: from tissue; host or cells: rat striatum (synaptosomes; homogenate); conditions: compound added 15 min before [3H]DA, 30 min at 37° C, read-out: IC50, inhibition of [3H]-DA uptake
Protocol: Lobinaline or the N-oxides were added 15 min before addition of [3H]DA. Synaptosomal uptake of [3H]DA was measured after 30 min incubation at 37° C.

[7] = nicotine-induced locomotor activation (LMA), open field; format: in vivo, SD rats
Protocol: low S.C. doses of nicotine, repeated daily, cause progressive LMA related to mesolimbic DA release. This is reduced by lobeline and varenicline and therefore has predictive value as a screen for potential therapeutics in nicotine use disorder.
Methods: 2 groups of 6 adult SD rats of each sex were tested in an open-field apparatus for LMA. Each animal received a daily nicotine injection (0.5 mg/Kg SC) for 6 days with the last nicotine injection preceded (20 min) by 25 mg/Kg SC of lobinaline bi-N-oxide. Behavior was recorded and scored by an observer blind to treatment. Data was presented as line crosses/5 minutes with LMA over days 1-5 compared to LMA on day 6.

[8] = Drinking in the dark model of binge drinking; format: in vivo, C57Bl/6J mice; conditions: 25 mg/Kg SC
Protocol: “Drinking in the dark” is a model for binge drinking in which C57Bl/6J mice are given limited access to alcohol during their dark cycle. With repeated daily access, mice will voluntarily drink to blood alcohol levels above 150 mg/dl. Lobeline reduces alcohol consumption in this model and it has predictive validity in that both naltrexone and acamprosate are active.
Methods: 8 male and 8 female mice were used for each of these studies and scoring was by an observer blind to treatment. Statistical analysis was by ANOVA followed by Bonnferoni posthoc with significance at p<0.05.

[9] = conditioned place preference (abuse potential); format: in vivo, SD rats
Description: In conditioned place preference a chamber with distinct cues is repeatedly paired with administration of the test drug. A second chamber is repeatedly paired with a control injection. After conditioning, a test phase allows the rat to move between the chambers. If a drug is “rewarding” (i.e. has abuse potential), the rat spends more time in the drug-associated chamber. If it is aversive, the opposite result is obtained.
Methods: 6 male and 6 female SD rats were used for each drug and dose. Test drugs (5 or 25 mg/kg lobinaline, or 25 mg/Kg of lobinaline bi-N-oxide S.C) were paired with the “less preferred” compartment (standard for drugs that may be weakly reinforcing) for 20 minutes. On the next day, rats received a control (DMSO/saline) injection and were placed in the preferred chamber. After three repeated pairings (test and control), the subjects were given access to both chambers and the time spent in each compartment was recorded and scored by an observer blind to treatment. Analysis was by two way ANOVA with post hoc Bonnferoni with significance set at p<0.05. Results. Most animals spent most of the test period in the compartment originally preferred in the drug-free state, and there were no significant differences between drug and vehicle controls.

[10] = system: nicAChRs; assay: [3H]DA release from superfused rat striatal slices; format: cell-based; conditions: antagonist 10 μM
Protocol: Effects of lobinaline and nicotine on [3H]DA release from superfused rat striatal slices (ref 5): rat brain striatal slices were incubated with [3H]DA for 30 min at […] before transfer to superfusion chambers. […] To evaluate the role of nicAChRs, striatal slices preloaded with [3H]-DA were pretreated with the nicAChR antagonist mecamylamine (10 μM) prior to superfusion of lobinaline (100 μM). […] With the data above from SHSY5Y cells, this supports a partial agonist action of lobinaline at nicAChRs. The N-oxides have not yet been tested in this system. Lobinaline has weak agonist effects on nicAChRs, but also has as yet unquantified antagonist effects (i.e. it acts as a partial agonist at nicAChRs).

[11] = system: nicAChR; assay: 45Ca2+ entry into SHSY5Y cells; format: cell-based; conditions: SHSY5Y cells; antagonist 1 uM
Description: Effects of lobinaline and nicotine on ^45Ca^2+ entry into SHSY5Y cells: nicAChR function can be evaluated semi-quantitatively in this cell line by measuring ^45Ca^2+ entry in response to nicotine. […] The lobinaline N-oxides have not yet been tested in this system.

## CC(NC(C)(C)C)C(=O)c1cccc(Cl)c1 (centres unmarked) [bupropion]
[1]
  IC50: 1.9 µM

## C[N+]1([O-])CCCC2C(c3ccccc3)C(C3=NCCCC3)C(c3ccccc3)CC21 (centres unmarked) [lobinaline N-oxide, lobinaline mono-N-oxide]
[2]; 1 mM in 250 nl medium, FIG. 6
  increase in amplitude of the DA signal: twofold increase
[2]; after exposure, 1 mM in 250 nl
  duration of increase in first order rate of decay of the DA peak: ~20 min
[2]; dorso-ventral position −5.5 mm, remains after 16 minutes
  increase in first order rate constant of DA decay: about three-fold
[2]
  reduction in DA clearance: 60%
  increase in amplitude of DA signal: doubling
[3]; DV-3.5 to DV-5.5 mm, FIG. 12
  DA clearance parameters, dorsal striatum, early changes: increase in T80 and clearance rate that reflects the increase in peak amplitude, with no change in k−1
[3]; DV-3.5 to DV-5.5 mm, up to 26 minutes after micro-injection, FIG. 12
  DA peak amplitude, dorsal striatum: marked and prolonged (but variable) increase
[3]; DV-6 to −7.5 mm (shell of nucleus accumbens), up to 26 minutes, FIG. 13
  DA peak amplitude, ventral striatum: marked and consistent increase
[3]; DV-6 to −7.5 mm, FIG. 13
  DA clearance parameters, ventral striatum: increase in clearance rate and k−1 at 21 and 26 minutes
[3]; after 11-26 minutes, FIG. 12
  DA clearance parameters, dorsal striatum, later: increase in both uptake rate and k−1 with little change in T80
[3]; over four local applications of dopamine
  duration of increase in DA amplitude: at least 20 minutes
[3]; relative to % control
  effect on DA clearance parameters: reduced immediately after microinjection but increased later
[3]; single local application ~500 nl 250 μM, striatum, FIGS. 10, 11
  effect on amplitude of the DA signal: increase in amplitude
[4]
  aqueous solubility: much more soluble than lobinaline
[5]
  character of [3H]epibatidine displacement: more weakly with a multiphasic displacement curve
[6]
  IC50: 0.517 µM

## C[N+]1([O-])CCCC2C(c3ccccc3)C(C3=[N+]([O-])CCCC3)C(c3ccccc3)CC21 (centres unmarked) [lobinaline bi-N-oxide]
[7]; 25 mg/Kg SC 20 min before nicotine 0.5 mg/Kg SC on day 6
  effect on nicotine-induced LMA sensitization trend: reversed in both sexes
[7]; day 6 vs days 1-5, repeated measures
  individual animals showing the same trend: 10/12
[8]
  food or water intake: no reduction in food or water intake
  overt toxicity: neither compound produced overt toxicity
[9]; after 3 repeated drug administrations
  overt toxicity: no signs of overt toxicity
[9]; lobinaline 5 or 25 mg/kg, bi-N-oxide 25 mg/Kg S.C
  sedation or locomotor activation: no sedation or locomotor activation
[9]; lobinaline 5 or 25 mg/kg, bi-N-oxide 25 mg/Kg S.C, three pairings
  conditioned place preference or aversion: neither lobinaline nor the lobinaline bi-N-oxide produced conditioned place preference or aversion
[2]; rat, in vivo
  effects on the DAT in vivo compared with mono-N-oxide: less potent than the “natural” mono-N-oxide
[2]
  reduction in DA clearance: 40%
  increase in amplitude of DA signal: 4 fold
[5]
  Ki: 6.5 µM
  character of [3H]epibatidine displacement: monophasically displaced
[6]
  IC50: 1.19 µM

## CNC1(C)C2CCC(C2)C1(C)C (centres unmarked) [mecamylamine]
[10]
  effect of antagonist pretreatment on lobinaline (100 μM)-evoked fractional [3H] release: significantly attenuated
[11]
  inhibition of lobinaline-fraction-evoked 45Ca2+ entry by antagonist: completely inhibited
